ChEMBL document CHEMBL1136229, “Design and synthesis of fluorinated RXR modulators” (Bioorg Med Chem Lett, 2003)

Tests used:
[1] = target: T1, Retinoic acid receptor gamma (Homo sapiens, UniProt P13631); experiment: Inhibition of 3[H]ATRA binding to retinoid acid receptor gamma expressed in CV-1 cells; format: cell-based
T1 sequence (P13631 whole entry): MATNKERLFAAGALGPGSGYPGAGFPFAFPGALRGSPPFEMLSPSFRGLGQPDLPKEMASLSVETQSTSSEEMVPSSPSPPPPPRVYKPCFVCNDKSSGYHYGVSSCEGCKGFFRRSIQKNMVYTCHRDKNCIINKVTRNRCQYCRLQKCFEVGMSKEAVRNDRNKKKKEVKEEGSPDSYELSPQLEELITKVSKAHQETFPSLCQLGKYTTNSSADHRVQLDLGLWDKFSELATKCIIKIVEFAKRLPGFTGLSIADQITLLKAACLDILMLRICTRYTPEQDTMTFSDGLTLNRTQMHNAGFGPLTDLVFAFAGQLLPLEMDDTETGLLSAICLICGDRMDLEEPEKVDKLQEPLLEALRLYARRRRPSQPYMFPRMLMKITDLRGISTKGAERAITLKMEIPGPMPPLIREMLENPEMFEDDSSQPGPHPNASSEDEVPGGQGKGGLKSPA

[2] = target: T2, Retinoic acid receptor RXR-alpha (Homo sapiens, UniProt P19793); experiment: Agonist activity against Retinoic acid receptor RXR-alpha expressed in CV-1 cell transcriptional activation assay; format: functional, cell-based
T2 sequence (P19793 whole entry): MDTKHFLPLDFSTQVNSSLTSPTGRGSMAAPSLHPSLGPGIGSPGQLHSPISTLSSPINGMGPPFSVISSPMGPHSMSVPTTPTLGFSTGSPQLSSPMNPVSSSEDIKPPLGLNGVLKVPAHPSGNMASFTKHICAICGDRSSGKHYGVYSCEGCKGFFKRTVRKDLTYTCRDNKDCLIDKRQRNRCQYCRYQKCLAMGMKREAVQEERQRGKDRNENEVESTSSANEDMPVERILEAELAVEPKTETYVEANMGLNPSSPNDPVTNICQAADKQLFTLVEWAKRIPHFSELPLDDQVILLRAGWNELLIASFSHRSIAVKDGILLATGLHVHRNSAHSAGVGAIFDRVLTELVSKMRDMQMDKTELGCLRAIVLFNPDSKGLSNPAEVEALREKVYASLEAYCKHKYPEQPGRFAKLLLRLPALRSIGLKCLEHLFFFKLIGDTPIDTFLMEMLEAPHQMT

[3] = target: RXR alpha/PPAR gamma (Homo sapiens, UniProt P19793); experiment: Synergistic activation of BRL-49653 mediated PPAR gamma and retinoid X receptor alpha expressed in CV-1 cell transcriptional activation assay; format: functional, cell-based
RXR alpha/PPAR gamma, sequence (P37231 whole entry, one chain of several): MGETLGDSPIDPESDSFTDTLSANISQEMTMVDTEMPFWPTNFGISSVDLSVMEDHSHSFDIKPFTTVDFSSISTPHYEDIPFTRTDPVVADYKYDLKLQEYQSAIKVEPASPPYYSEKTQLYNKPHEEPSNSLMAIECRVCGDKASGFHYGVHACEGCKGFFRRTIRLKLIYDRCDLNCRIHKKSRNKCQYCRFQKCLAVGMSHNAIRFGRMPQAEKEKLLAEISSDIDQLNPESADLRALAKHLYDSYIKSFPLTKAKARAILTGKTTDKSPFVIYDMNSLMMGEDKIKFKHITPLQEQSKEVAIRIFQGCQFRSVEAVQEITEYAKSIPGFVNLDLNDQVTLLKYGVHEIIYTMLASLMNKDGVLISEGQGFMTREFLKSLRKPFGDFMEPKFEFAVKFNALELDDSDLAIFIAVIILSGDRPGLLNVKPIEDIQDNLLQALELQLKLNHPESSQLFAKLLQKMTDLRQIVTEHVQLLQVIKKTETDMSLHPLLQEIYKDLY

[4] = species: Homo sapiens; experiment: Synergistic activation of retinoid acid receptor (RAR) transcriptional activation at 3 nM TTNPB; format: functional
[5] = target: T2, Retinoic acid receptor RXR-alpha; experiment: Antagonist activity against Retinoic acid receptor RXR-alpha expressed in CV-1 cell transcriptional activation assay; format: functional, cell-based
[6] = AUC (0-6 hr) after oral administration at 30 mg/kg in ICR mouse; format: ADME, organism-based; set-up: time < 6 hr, route oral, dose 30 mg/kg; details: plasma
[7] = Tmax after oral administration at 30 mg/kg in ICR mouse; format: ADME, organism-based; set-up: dose 30 mg/kg, route oral; details: in vivo
[8] = tested on: Mus musculus; experiment: Cmax after oral administration at 30 mg/kg in ICR mouse; format: ADME, organism-based; set-up: dose 30 mg/kg, route oral; details: in vivo
[9] = target: T2, Retinoic acid receptor RXR-alpha; experiment: Inhibition of 3[H]9-cis-retinoic acid binding to Retinoic acid receptor RXR-alpha expressed in CV-1 cells; format: cell-based

| Structure (SMILES) | Ki [1] [nM] | EC50 [2] [nM] | EC50 [3] [nM] | Synergy [4] | EC50 [5] [nM] | AUC(0-t) at 6 h [6] [ng·h/mL] | Tmax [7] [h] | Cmax [8] [ng/mL] | Ki [9] [nM] |
| --- | --- | --- | --- | --- | --- | --- | --- | --- | --- |
| C/C(=C/C(F)=C/C(C)=C/C(=O)O)c1cc(C(C)(C)C)cc(C(C)(C)C)c1OCC(F)F | > 10000 | 259 | 249 | 8.9 | 8710 |  |  |  |  |
| C/C(=C/C=C/C(C)=C/C(=O)O)c1cc(C(C)(C)C)cc(C(C)(C)C)c1OCC(F)F | > 10000 |  |  | 1.4 |  | 2090 | 1 | 1200 |  |
| CCOc1c(\C(=C/C=C/C(C)=C/C(=O)O)C(F)(F)F)cc(C(C)(C)C)cc1C(C)(C)C |  |  | 167 | 7 | 38 |  |  |  | 50.3 |
| C/C(=C/C=C(F)/C(C)=C/C(=O)O)c1cc(C(C)(C)C)cc(C(C)(C)C)c1OCC(F)F | > 10000 |  | 143 | 2.5 | 4840 |  |  |  |  |
| CCCCOc1c(\C(C)=C/C=C/C(=C/C(=O)O)C(F)(F)F)cc(C(C)(C)C)cc1C(C)(C)C | > 10000 |  | 359 | 1.3 | 806 |  |  |  | 5210 |
| CCCCOc1c(\C(C)=C/C=C/C(C)=C/C(=O)O)cc(C(C)(C)C)cc1C(C)(C)C | > 10000 |  | 9.2 | 1.2 | 3.3 |  |  |  | 3.8 |
| CCOc1c(\C(C)=C/C=C/C(C)=C/C(=O)O)cc(C(C)(C)C)cc1C(C)(C)C | 8570 |  |  | 2 | 6.4 |  |  |  |  |
| CC(/C=C/C(F)=C(/C)c1cc(C(C)(C)C)cc(C(C)(C)C)c1OCC(F)F)=C\C(=O)O | > 10000 |  | 6.4 | 1.8 | 6.8 | 17800 | 3 | 3690 | 7.8 |
| C/C(=C/C=C/C(C)=C(\F)C(=O)O)c1cc(C(C)(C)C)cc(C(C)(C)C)c1OCC(F)F | > 10000 |  | 2.7 | 1.5 | 3.4 |  |  |  | 10.6 |
